Experimental data: paper PMC9598925, “Synthetic Amphipathic β-Sheet Temporin-Derived Peptide with Dual Antibacterial and Anti-Inflammatory Activities” (Antibiotics, 2022)
Non-standard residues stand in square brackets, D forms with d. Residues, ends and D or L forms follow the SMILES beside them. Nle = CCCC[C@H](N)C(=O)O

How the values were obtained:
Format in all cases: physicochemical
[1] = Peptide aggregation in aqueous solution, Nile Red; conditions: Nile Red 500 nM, 1–200 μM peptide, 1 h equilibration at room temperature, fluorescence, triplicate, Boltzmann fit
Description: Nile Red (NR) was used as fluorescent probe to monitor the aggregation in solution [51]. NR is not very soluble in water and has a large preference to move into hydrophobic environment as aggregates, producing a blue shift and hyperchromic effect. The peptide stock (400 μM) was prepared in 1,1,1,3,3,3-hexafluoro-2-propanol (HFIP) as solvent and different aliquots were taken to prepare each peptide solution at different concentrations (1, 5, 10, 15, 20, 30, 50, 100, and 200 μM). Then, HFIP was removed under nitrogen stream, 1 mL of water was added, and the solution was sonicated for 15 min and freeze-dried. Finally, the peptide powders were dissolved with a solution of 500 nM of NR in water and equilibrated for 1 h at room temperature. Emission spectra for each solution were measured between 570 and 700 nm by a Cary Eclipse Varian spectrometer (San Diego, CA, USA), setting a slit width of 5 nm and an excitation wavelength of 550 nm and a 10 nm slit width. The measurements were performed in triplicate. The data were analyzed by plotting the maximum emission fluorescence corresponding wavelength (y) as a function of peptide concentration (x) and fitting with the sigmoidal Boltzmann equation as described previously.

[2] = Peptide aggregation in LUVs, Thioflavin T; conditions: LUVs DOPG/CL (58/42), 0.1 mM lipid
Description: Regarding peptide aggregation in LUVs, was monitored using the Thioflavin T as fluorescent probe. LUVs were prepared using the extrusion method. Firstly, the lipid films (final concentration of 0.1 mM), made of DOPG, CL (58/42 ratio in moles) and DOPG/DOPE/CL (63/23/12 ratio in moles), were prepared by dissolving an appropriate amount of lipids in chloroform. The solvent was removed under nitrogen stream, water was added, and the film lipids were freeze-dried. Then, the lipid films were hydrated with 100 mM NaCl, 10 mM Tris-HCl, 25 μM Tht buffer, pH 7.4, and vortexed for 1 h. Then, the lipid suspension was freeze-thawed 6 times and extruded 10 times through polycarbonate membranes with […] diameter pores to obtain LUVs. The aggregation of [Nle^1, DLeu^9, DLys^10]TL was monitored titrating LUVs with different peptide concentrations of 5, 10, 15, 20, 30, 50 μM. Spectra were recorded before and after the addition of peptide using a Varian Cary Eclipse fluorescence spectrometer, exciting the sample at 450 nm (slit width, 10 nm) and recording fluorescence emission at 482 nm (slit width, 5 nm). Aggregation was quantified according to this equation: %A= […] × 100, where Ff indicates the value of fluorescence after peptide addition, F0 the fluorescence in the absence of peptide and Fmax is the fluorescence maximum obtained immediately after peptide addition.

[3] = Circular dichroism in vesicles; conditions: vesicles of DOPG/CL and DOPG/DOPE/CL, peptide 3 μM, phosphate buffer 5 mM pH 7.4, 25 °C; negative band at ~220 nm
Description: All CD spectra were recorded from 260 to 190 nm (a bandwidth of 3 nm, a time constant of 16 s, and a scan rate of 10 nm/min) on a Jasco J-175 spectropolarimeter using a 1 cm quartz cell at 25 °C. Small unilamellar vesicles (SUVs) made of DOPG/CL (58/42 ratio in moles) and DOPG/DOPE/CL (63/23/12 ratio in moles) were used in the conformational study. SUVs were prepared as reported previously. Firstly, lipids dissolved in chloroform and an equal volume of peptide solution dissolved in 2,2,2-trifluoroethanol (TFE) containing the peptide [Nle^1, DLeu^9, DLys^10]TL at a concentration of 3 μM were mixed, vortexed, and lyophilized overnight. Then, the dry samples were hydrated with phosphate buffer 5 mM, pH 7.4, for 1 h and sonicated for 30 min to obtain SUVs. Each spectrum was corrected for the blank and converted into mean molar ellipticity.

**Q.** Which results are given for `CCCC[C@H](N)C(=O)N[C@@H](Cc1ccccc1)C(=O)N[C@H](C(=O)N1CCC[C@H]1C(=O)N[C@@H](Cc1c[nH]c2ccccc12)C(=O)N[C@@H](Cc1ccccc1)C(=O)N[C@@H](CO)C(=O)N[C@@H](CCCCN)C(=O)N[C@@H](Cc1ccccc1)C(=O)N[C@H](CC(C)C)C(=O)N[C@H](CCCCN)C(=O)N[C@@H](CCCNC(=N)N)C(=O)N[C@H](C(=O)N[C@@H](CC(C)C)C(N)=O)[C@@H](C)CC)C(C)C` [[Nle^1, DLeu^9, DLys^10]TL] (H-[Nle]FVPWFSKF[dL][dK]RIL-NH2)?
**A.** critical aggregation concentration (CAC) [1]: 38.9 µM; aggregation (ThT) ([2]; 5 μM peptide, pH 7.4, 25 μM ThT fluorescence): ~ 22%; aggregation (ThT) ([2]; 30 μM peptide, pH 7.4, ThT fluorescence): completely aggregated; molecular conformation (CD) [3]: β-type conformation
